Entries after “also recorded” stand apart in the source; their conditions may differ.
What was measured:
[1] = test system: adults with Meniere's disease; assay: Phase 1b clinical study: safety and tolerability of SPI-1005; type: in vivo, human; settings: first two cohorts (26 of 40 subjects); for safety and tolerability: oral dosing BID for 21 days
Description: (§1) The general approach for the investigation of the safety and efficacy of SPI-1005 for Meniere's disease is conducting this phase lb, safety, pharmacokinetic and pharmacodynamic study in 40 adults with Meniere's disease. The study is evaluating escalating doses of SPI-1005 at 200, 400 or 600 mg po BID versus placebo for twenty-one days for impact on pure-tone audiometry, speech discrimination, electrocochleography, and patient-reported outcomes using validated questionnaires for assessing vertigo and tinnitus (Hornibrook, et al., 2012; Meikle, et al., 2011; Yardley, et al., 2004). This study is ongoing and being conducted in compliance with the protocol, Good Clinical Practice (GCP) and the applicable regulatory requirements.
The safety and tolerability of SPI-1005 is being determined by examining the toxicities and adverse events that are attributable to treatment. […]
Before, during, and for 28 days after administration of SPI-1005, patients were evaluated for safety by history, physical examination, vital signs and blood tests (complete blood count [CBC], Chemistry-20 [Chem-20]). Peak and trough plasma levels of ebselen and its major metabolite were determined using liquid chromatography-mass spectrometry (LCMS) at certain time points. Additionally, plasma was analyzed by High Performance Liquid Chromatography-Inductively Coupled Plasma-Mass Spectrometry (HPLC-ICP-MS) for total selenium at the corresponding time points. Patients were monitored for adverse events at each clinic visit. Female patients received pregnancy testing, and those found to be pregnant were excluded or discontinued from the study and monitored for adverse events. […]
History and physical examinations, vital signs and analysis of lab reports were performed to evaluate the safety of SPI-1005. […] Blood test results were analyzed according to currently established laboratory norms. […]
Blood testing was performed at specified intervals to evaluate the safety of SPI-1005. […] Blood was collected and shipped to a designated CRO(s) to quantify ebselen, ebselen metabolite, and total selenium. […]

[2] = test system: adults with Meniere's disease; assay: Phase 1b clinical study: pure-tone audiometry (PTA), low frequency hearing; type: in vivo, human
Description: as §1
(§2) The effect of SPI-1005 on hearing and vertigo was evaluated at baseline, at the end of 21 days of treatment and 28 days after completing treatment. Tinnitus was evaluated at baseline, weekly during treatment, and 7 and 28 days after treatment. Hearing was evaluated using pure-tone audiometric testing at 0.25, 0.5, 1, 2, 3, 4, 6, and 8 kHz, and speech discrimination using the WINT at 24, 20, 16, 12, 8, 4, and 0 Signal-to-Noise ratio (SNR). The severity of vertigo was assessed using the VSS. The severity of tinnitus was assessed using the TFI. In addition, ECochG was conducted at baseline, at the end of treatment and 28 days after completing treatment in order to measure the pharmacodynamic response.
(§3) Audiological evaluations were performed at specified intervals to evaluate the efficacy of SPI-1005. […] These were scored by study personnel. […]
(§4) Audiometric data were collected in the form of categorical and continuous variables. Categorical data were analyzed using the chi-square distribution. Continuous data were analyzed using mixed-effects multiple-repeated measures, and post-hoc analysis, when necessary, was adjusted using Bonferroni applications. Non-parametric tests included the Mann-Whitney U. Calculated p-values were considered statistically significant at or below an alpha value of 0.05. […]

[3] = test system: adults with Meniere's disease; assay: Phase 1b clinical study: speech discrimination, Words-in-Noise Test (WINT) / word recognition scores; type: in vivo, human
Description: as §1, §2, §3, §4

[4] = test system: adults with Meniere's disease; assay: Phase 1b clinical study: Tinnitus Functional Index (TFI); type: in vivo, human
Description: as §1, with “This study is ongoing and being conducted in compliance with the protocol, Good Clinical Practice (GCP) and the applicable regulatory requirements.” left out
as §2, with “In addition, ECochG was conducted at baseline, at the end of treatment and 28 days after completing treatment in order to measure the pharmacodynamic response.” left out
as §3

[5] = test system: adults with Meniere's disease; assay: Phase 1b clinical study: Tinnitus Loudness (TL) visual analogue scale; type: in vivo, human
Description: as §1
Multiple clinical assessments and analysis of auditory and vestibular function • Pure tone audiometry and word recognition scores: Baseline, 21d tx, and 28d post-tx • Hearing loss is typically unilateral and low frequency (0.25, 0.5 and 1 kHz) • Significant hearing improvement ≥10 dB reduction from baseline • Words in noise tests (WINT) 35 words under 7 different SNRs to each ear (0-35) • Significant WINT improvement ≥10% increase from baseline • Tinnitus Functional Index (TFI) : Baseline, and 7d, 14d and 21d tx, and 7d and 28d post-tx • 25 questions answered by patient regarding their tinnitus severity (0-100) • Significant TFI improvement ≥10 pt reduction from baseline • Tinnitus Loudness (TL) answered by patient on a visual analogue scale (0-10) • Significant TL improvement ≥2 pt reduction from baseline • Vertigo Symptom Scale (VSS): Baseline, 21d tx, and 28d post-tx • 15 questions answered by patient regarding their vertigo severity (0-60) • Significant VSS improvement ≥6 pt reduction from baseline

[6] = test system: adults with Meniere's disease; assay: Phase 1b clinical study: Vertigo Symptom Scale (VSS); type: in vivo, human
Description: as §1, with “This study is ongoing and being conducted in compliance with the protocol, Good Clinical Practice (GCP) and the applicable regulatory requirements.” left out
as §2, with “In addition, ECochG was conducted at baseline, at the end of treatment and 28 days after completing treatment in order to measure the pharmacodynamic response.” left out
as §3

[7] = test system: adults with Meniere's disease; assay: Phase 1b clinical study: initial analysis of efficacy, secondary endpoints versus placebo; type: in vivo, human; settings: two analyzed cohorts
Description: as §1, with “requirements. […]” for “requirements.”
Study participants were been randomized to SPI-1005 or placebo in this double-blind, dose-escalation study to evaluate its safety and preliminary efficacy. Patients, aged 19-70 years, with probable or definite Meniere's disease have undergone baseline testing to have their severity of sensorineural hearing loss, tinnitus and vertigo determined before the start of study treatment (see Table 3: Schedule of Assessments). […]

[8] = 25° Celsius; cited from earlier work
[9] = Noguchi et al., 1992; 1994; cited from earlier work
[10] = test system: cytochrome-C release from mitochondria; settings: during lipid peroxidation; Namura et al., 2001; cited from earlier work
[11] = test system: cochlea following noise- or ototoxin-induced injury; settings: preclinical animal studies; cited from earlier work

O=c1c2ccccc2[se]n1-c1ccccc1 [ebselen, 2-phenyl-1,2-benzisoselenazol-3(2H)-one]
drug-related adverse events [1]: no drug-related adverse events have occurred
safety and tolerability [1]: safe and well tolerated
safety and tolerability ([1]; listed as SPI-1005): well tolerated with no adverse events due to study drug
highest improvement in low frequency (0.25, 0.5, and 1 kHz) hearing ([2]; PTA, oral dosing 21 days, first two cohorts): ≤ 35 dB
PTA improvement, actives vs placebos ([2]; first two cohorts): significant and specific to actives vs placebos
share of actives with significant hearing improvement ≥10 dB ([2]; ≥10 dB reduction from baseline, no significant improvement in placebos): 60%
WINT improvement, actives vs placebos ([3]; first two cohorts): significant and specific to actives vs placebos
highest improvement over baseline WRS ([3]; word recognition scores, oral dosing 21 days): ≤ 120%
share of actives with significant WINT improvement ≥10% increase ([3]; ≥10% increase from baseline, no significant improvement in placebos): 35%
share of actives with significant TFI improvement ≥10 pt reduction ([4]; placebo 50%): 40%
highest improvement in TFI score (reduction) ([4]; scale 0-100): ≤ 62 pt
TL improvement, actives vs placebo ([5]; human, in vivo): greater in actives than placebo
share of actives with significant TL improvement ≥2 pt reduction ([5]; placebo 33%): 70%
highest improvement in tinnitus loudness (reduction) ([5]; scale 0-10): ≤ 8 pt
VSS improvement, actives vs placebo ([6]; human, in vivo): greater in actives than placebo
share of actives with significant VSS improvement ≥6 pt reduction ([6]; placebo 33%): 55%
clinical efficacy (hearing, tinnitus, vertigo) versus placebo [7]: achieved several secondary endpoints versus placebo; also recorded: good clinical efficacy
clinical efficacy (hearing, tinnitus, vertigo) versus placebo ([7]; listed as Ebselen): clinically relevant improvements in hearing, tinnitus and vertigo
solubility in aqueous solutions [8]: slightly soluble
activity against peroxynitrite [9]: strong activity against peroxynitrite
effect on cytochrome-C release from mitochondria and nuclear damage [10]: reduces cytochrome-C release from mitochondria and nuclear damage
effect on pathologic changes in the cochlea [11]: prevent or reverse the pathologic changes in the cochlea

From patent US12427138B2, “Treatment of Meniere's disease” (SOUND PHARMACEUTICALS INCORPORATED, priority 2016, dated 2025)
